Laboratory results published in patent US4089965A, “Thiazolylphenylguanidines as antirhinovirus agents” (American Cyanamid Company, priority 1977, dated 1978).

Columns and labels:
Experiment in all cases: Protection of tissue from cytopathic effects (plaque inhibition, filter paper disc or agar overlay)
Settings in all cases: 33°, 3 to 5 days
[1] = test system: Rhinovirus strain 2
[2] = test system: Rhinovirus strain 23; note: test concentration or dose not given here
[3] = test system: Rhinovirus strain 14
[4] = test system: Rhinovirus strain 1B
[5] = test system: Rhinovirus strain 5; note: test concentration or dose not given here

Measured: Protection of tissue from destruction by virus

N=C(Nc1cccc(Cl)c1)Nc1nc(-c2ccccc2)cs1 [1-(4-phenyl-2-thiazolyl)-3-(3-chlorophenyl) guanidine]
+: [1]

N=C(Nc1ccc(C(=O)O)cc1)Nc1nc(-c2ccccc2)cs1 [1-(4-phenyl-2-thiazolyl)-3-(4-carboxyphenyl) guanidine]
+: all assays above

N=C(Nc1ccc(F)cc1)Nc1nc(-c2ccccc2)cs1 [1-(4-phenyl-2-thiazolyl)-3-(4-fluorophenyl) guanidine]
+: [1] | [4] | [5]

Cc1ccc(NC(=N)Nc2nc(-c3ccccc3)cs2)cc1 [1-(4-phenyl-2-thiazolyl)-3-(p-tolyl)guanidine]
+: all assays above

COC(=O)c1ccc(NC(=N)Nc2nc(-c3ccccc3)cs2)cc1 [1-(4-phenyl-thiazolyl)-3-(4-carbomethoxyphenyl)-guanidine]
+: [2] | [1]

Cc1ccc(NC(=N)Nc2nc(-c3ccc(Cl)cc3)cs2)cc1 [1-[4-(4-chlorophenyl)-2-thiazolyl-3-(p-tolyl)guanidine]]
+: [1] | [4]
